Results from PubChem BioAssay AID846 (PCMD, 2007).
Results filed as inconclusive are left out. Activity calls are given as the source filed them. How the calls were made is not given here.

Molecular target: Coagulation factor XI (Homo sapiens) (UniProt P03951)
Test: FXIa inhibitor IC50 values, dose response, biochemical, hits from 1536-well screen (AID 846)
Conditions: purified human plasma factor XIa, fluorogenic AMC substrate, 384-well, 2 h

Chain of Coagulation factor XI (Homo sapiens) (P03951 19-387 limits assumed): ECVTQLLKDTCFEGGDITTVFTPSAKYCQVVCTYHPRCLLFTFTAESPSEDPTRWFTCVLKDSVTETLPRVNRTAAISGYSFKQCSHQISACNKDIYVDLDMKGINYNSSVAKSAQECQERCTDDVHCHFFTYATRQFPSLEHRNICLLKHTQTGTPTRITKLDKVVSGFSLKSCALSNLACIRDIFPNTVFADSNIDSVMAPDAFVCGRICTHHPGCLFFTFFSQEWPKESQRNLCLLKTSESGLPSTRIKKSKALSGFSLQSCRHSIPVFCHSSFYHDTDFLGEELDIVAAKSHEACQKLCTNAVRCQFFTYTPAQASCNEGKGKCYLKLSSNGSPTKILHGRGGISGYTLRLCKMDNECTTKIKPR
Chain of Coagulation factor XI (Homo sapiens) (P03951 388-625 limits assumed): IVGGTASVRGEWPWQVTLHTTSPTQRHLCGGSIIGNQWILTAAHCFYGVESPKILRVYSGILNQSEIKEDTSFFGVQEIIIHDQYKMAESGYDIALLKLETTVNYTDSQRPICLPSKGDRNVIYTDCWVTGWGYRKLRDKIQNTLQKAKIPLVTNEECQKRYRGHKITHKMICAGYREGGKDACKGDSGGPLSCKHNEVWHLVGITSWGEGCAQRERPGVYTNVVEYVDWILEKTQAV

`C=CCOC(=O)C1=C(C)Nc2[nH]c(=O)[nH]c(=O)c2C1c1ccccc1` (stereo not drawn) was tested, and the IC50 was > 50 µM (inactive).

For `Brc1cccc(/C=N/Nc2nn[nH]n2)c1`, the IC50 was > 50 µM (inactive).

With `O=C1CC(N2CCC(c3nc4ccccc4o3)CC2)C(=O)N1c1ccc(Cl)c(C(F)(F)F)c1` (stereo not drawn) the IC50 was > 50 µM (inactive).

In the case of `CCc1ccccc1N1C(=O)CC(=O)NC1=O`, the IC50 is reported as > 50 µM (inactive).

In the case of `O=C1CC(Sc2ccc(Cl)cc2)C(=O)N1c1ccc2c(c1)OCCO2` (stereo not drawn), the IC50 is reported as > 50 µM (inactive).

`COc1cc(/C=N/Nc2cc(C)nc(NS(=O)(=O)c3ccccc3)n2)ccc1O` was tested, and the IC50 was > 50 µM (inactive).

`Cc1cccc(NC(=O)c2cc(N3C(=O)CCC3=O)ccc2Cl)n1` was tested, and the IC50 was > 50 µM (inactive).

`Oc1ccc(/C=N/Nc2nc(-c3cccnc3)nc3ccccc23)c(O)c1` was tested, and the IC50 was > 50 µM (inactive).
